Experimental data as given in ChEMBL document CHEMBL5303573, “Mapping human microbiome drug metabolism by gut bacteria and their genes” (Nature, 2019).

assay: The drug is tested on Blautia luti strain: DSM14534 for biotransformation. The drug concentrations were measured before and after a 12-h incubation by liquid-chromatography-coupled mass spectrometry (LC–MS); format: ADME; set-up: dose 2 uM, timepoint 0 vs 12 hours; settings: 2 µM

| SMILES | Bacterial Biotransformation |
| --- | --- |
| CC(CN(C)C)CN1c2ccccc2CCc2ccccc21.O=C(O)/C=C\C(=O)O (centres undefined) [TRIMIPRAMINE MALEATE] | Compound NOT metabolized |
| CCN1CCCC1CNC(=O)c1cc(S(N)(=O)=O)ccc1OC (centres undefined) [SULPIRIDE] | Compound NOT metabolized |
| CCc1cccc2c3c([nH]c12)C(CC)(CC(=O)O)OCC3 (centres undefined) [ETODOLAC] | Compound NOT metabolized |
| O=C(O)CCC(=O)O.O=C(O[C@H]1CN2CCC1CC2)N1CCc2ccccc2[C@@H]1c1ccccc1 [SOLIFENACIN SUCCINATE] | Compound NOT metabolized |

assay: The drug is tested on Escherichia coli strain: BW25113 for biotransformation. The drug concentrations were measured before and after a 12-h incubation by liquid-chromatography-coupled mass spectrometry (LC–MS); settings: 2 µM

| SMILES | Bacterial Biotransformation |
| --- | --- |
| CC(CN(C)C)CN1c2ccccc2CCc2ccccc21.O=C(O)/C=C\C(=O)O (centres undefined) [TRIMIPRAMINE MALEATE] | Compound NOT metabolized |
| CCN1CCCC1CNC(=O)c1cc(S(N)(=O)=O)ccc1OC (centres undefined) [SULPIRIDE] | Compound NOT metabolized |
| CCc1cccc2c3c([nH]c12)C(CC)(CC(=O)O)OCC3 (centres undefined) [ETODOLAC] | Compound NOT metabolized |

settings: parabacteroides distasonis, 12 h, 2 µM
Description: The drug is tested on Parabacteroides distasonis strain: ATCC8503 for biotransformation. The drug concentrations were measured before and after a 12-h incubation by liquid-chromatography-coupled mass spectrometry (LC–MS)

| SMILES | Bacterial Biotransformation |
| --- | --- |
| CC(CN(C)C)CN1c2ccccc2CCc2ccccc21.O=C(O)/C=C\C(=O)O (centres undefined) [TRIMIPRAMINE MALEATE] | Compound NOT metabolized |
| CCc1cccc2c3c([nH]c12)C(CC)(CC(=O)O)OCC3 (centres undefined) [ETODOLAC] | Compound NOT metabolized |
| O=C(O)CCC(=O)O.O=C(O[C@H]1CN2CCC1CC2)N1CCc2ccccc2[C@@H]1c1ccccc1 [SOLIFENACIN SUCCINATE] | Compound NOT metabolized |

settings: bacteroides fragilis, 12 h, 2 µM
Description: The drug is tested on Bacteroides fragilis strain: NCTC 9343 for biotransformation. The drug concentrations were measured before and after a 12-h incubation by liquid-chromatography-coupled mass spectrometry (LC–MS)

| SMILES | Bacterial Biotransformation |
| --- | --- |
| CCN1CCCC1CNC(=O)c1cc(S(N)(=O)=O)ccc1OC (centres undefined) [SULPIRIDE] | Compound NOT metabolized |
| O=C(O)CCC(=O)O.O=C(O[C@H]1CN2CCC1CC2)N1CCc2ccccc2[C@@H]1c1ccccc1 [SOLIFENACIN SUCCINATE] | Compound NOT metabolized |

assay: The drug is tested on Bacteroides fragilis strain: ATCC43859 for biotransformation. The drug concentrations were measured before and after a 12-h incubation by liquid-chromatography-coupled mass spectrometry (LC–MS); settings: 2 µM

| SMILES | Bacterial Biotransformation |
| --- | --- |
| CC(CN(C)C)CN1c2ccccc2CCc2ccccc21.O=C(O)/C=C\C(=O)O (centres undefined) [TRIMIPRAMINE MALEATE] | Compound NOT metabolized |
| CCc1cccc2c3c([nH]c12)C(CC)(CC(=O)O)OCC3 (centres undefined) [ETODOLAC] | Compound metabolized |
| O=C(O)CCC(=O)O.O=C(O[C@H]1CN2CCC1CC2)N1CCc2ccccc2[C@@H]1c1ccccc1 [SOLIFENACIN SUCCINATE] | Compound NOT metabolized |

assay: The drug is tested on Enterobacter cancerogenus strain: ATCC35316 for biotransformation. The drug concentrations were measured before and after a 12-h incubation by liquid-chromatography-coupled mass spectrometry (LC–MS); settings: 2 µM

| SMILES | Bacterial Biotransformation |
| --- | --- |
| CC(CN(C)C)CN1c2ccccc2CCc2ccccc21.O=C(O)/C=C\C(=O)O (centres undefined) [TRIMIPRAMINE MALEATE] | Compound NOT metabolized |
| CCN1CCCC1CNC(=O)c1cc(S(N)(=O)=O)ccc1OC (centres undefined) [SULPIRIDE] | Compound NOT metabolized |
| CCc1cccc2c3c([nH]c12)C(CC)(CC(=O)O)OCC3 (centres undefined) [ETODOLAC] | Compound NOT metabolized |
| O=C(O)CCC(=O)O.O=C(O[C@H]1CN2CCC1CC2)N1CCc2ccccc2[C@@H]1c1ccccc1 [SOLIFENACIN SUCCINATE] | Compound NOT metabolized |

assay: The drug is tested on Clostridium sp. strain: fecal isolate for biotransformation. The drug concentrations were measured before and after a 12-h incubation by liquid-chromatography-coupled mass spectrometry (LC–MS); settings: 2 µM

| SMILES | Bacterial Biotransformation |
| --- | --- |
| CC(CN(C)C)CN1c2ccccc2CCc2ccccc21.O=C(O)/C=C\C(=O)O (centres undefined) [TRIMIPRAMINE MALEATE] | Compound NOT metabolized |
| CCN1CCCC1CNC(=O)c1cc(S(N)(=O)=O)ccc1OC (centres undefined) [SULPIRIDE] | Compound NOT metabolized |
| CCc1cccc2c3c([nH]c12)C(CC)(CC(=O)O)OCC3 (centres undefined) [ETODOLAC] | Compound NOT metabolized |
| O=C(O)CCC(=O)O.O=C(O[C@H]1CN2CCC1CC2)N1CCc2ccccc2[C@@H]1c1ccccc1 [SOLIFENACIN SUCCINATE] | Compound NOT metabolized |

assay: The drug is tested on Bacteroides finegoldii strain: DSM17565 for biotransformation. The drug concentrations were measured before and after a 12-h incubation by liquid-chromatography-coupled mass spectrometry (LC–MS); settings: 2 µM

| SMILES | Bacterial Biotransformation |
| --- | --- |
| CC(CN(C)C)CN1c2ccccc2CCc2ccccc21.O=C(O)/C=C\C(=O)O (centres undefined) [TRIMIPRAMINE MALEATE] | Compound NOT metabolized |
| CCN1CCCC1CNC(=O)c1cc(S(N)(=O)=O)ccc1OC (centres undefined) [SULPIRIDE] | Compound NOT metabolized |
| CCc1cccc2c3c([nH]c12)C(CC)(CC(=O)O)OCC3 (centres undefined) [ETODOLAC] | Compound NOT metabolized |
| O=C(O)CCC(=O)O.O=C(O[C@H]1CN2CCC1CC2)N1CCc2ccccc2[C@@H]1c1ccccc1 [SOLIFENACIN SUCCINATE] | Compound NOT metabolized |

assay: The drug is tested on Bacteroides ovatus strain: ATCC8483 for biotransformation. The drug concentrations were measured before and after a 12-h incubation by liquid-chromatography-coupled mass spectrometry (LC–MS); settings: 2 µM

| SMILES | Bacterial Biotransformation |
| --- | --- |
| CC(CN(C)C)CN1c2ccccc2CCc2ccccc21.O=C(O)/C=C\C(=O)O (centres undefined) [TRIMIPRAMINE MALEATE] | Compound NOT metabolized |
| CCN1CCCC1CNC(=O)c1cc(S(N)(=O)=O)ccc1OC (centres undefined) [SULPIRIDE] | Compound NOT metabolized |
| CCc1cccc2c3c([nH]c12)C(CC)(CC(=O)O)OCC3 (centres undefined) [ETODOLAC] | Compound NOT metabolized |
| O=C(O)CCC(=O)O.O=C(O[C@H]1CN2CCC1CC2)N1CCc2ccccc2[C@@H]1c1ccccc1 [SOLIFENACIN SUCCINATE] | Compound NOT metabolized |

settings: bacteroides thetaiotaomicron, 12 h, 2 µM
Description: The drug is tested on Bacteroides thetaiotaomicron strain: 3731 for biotransformation. The drug concentrations were measured before and after a 12-h incubation by liquid-chromatography-coupled mass spectrometry (LC–MS)

| SMILES | Bacterial Biotransformation |
| --- | --- |
| CC(CN(C)C)CN1c2ccccc2CCc2ccccc21.O=C(O)/C=C\C(=O)O (centres undefined) [TRIMIPRAMINE MALEATE] | Compound NOT metabolized |
| CCc1cccc2c3c([nH]c12)C(CC)(CC(=O)O)OCC3 (centres undefined) [ETODOLAC] | Compound NOT metabolized |
| O=C(O)CCC(=O)O.O=C(O[C@H]1CN2CCC1CC2)N1CCc2ccccc2[C@@H]1c1ccccc1 [SOLIFENACIN SUCCINATE] | Compound NOT metabolized |

settings: bacteroides thetaiotaomicron, 12 h, 2 µM; remark: another data set of the same source
Description: The drug is tested on Bacteroides thetaiotaomicron strain: VPI-5482 for biotransformation. The drug concentrations were measured before and after a 12-h incubation by liquid-chromatography-coupled mass spectrometry (LC–MS)

| SMILES | Bacterial Biotransformation |
| --- | --- |
| CCc1cccc2c3c([nH]c12)C(CC)(CC(=O)O)OCC3 (centres undefined) [ETODOLAC] | Compound metabolized |

assay: The drug is tested on Eubacterium hallii strain: DSM3353 for biotransformation. The drug concentrations were measured before and after a 12-h incubation by liquid-chromatography-coupled mass spectrometry (LC–MS); settings: anaerobutyricum hallii, 2 µM

| SMILES | Bacterial Biotransformation |
| --- | --- |
| CC(CN(C)C)CN1c2ccccc2CCc2ccccc21.O=C(O)/C=C\C(=O)O (centres undefined) [TRIMIPRAMINE MALEATE] | Compound NOT metabolized |
| CCN1CCCC1CNC(=O)c1cc(S(N)(=O)=O)ccc1OC (centres undefined) [SULPIRIDE] | Compound NOT metabolized |
| CCc1cccc2c3c([nH]c12)C(CC)(CC(=O)O)OCC3 (centres undefined) [ETODOLAC] | Compound NOT metabolized |
| O=C(O)CCC(=O)O.O=C(O[C@H]1CN2CCC1CC2)N1CCc2ccccc2[C@@H]1c1ccccc1 [SOLIFENACIN SUCCINATE] | Compound NOT metabolized |

assay: The drug is tested on Bifidobacterium breve strain: DSM20213 for biotransformation. The drug concentrations were measured before and after a 12-h incubation by liquid-chromatography-coupled mass spectrometry (LC–MS); settings: 2 µM

| SMILES | Bacterial Biotransformation |
| --- | --- |
| CC(CN(C)C)CN1c2ccccc2CCc2ccccc21.O=C(O)/C=C\C(=O)O (centres undefined) [TRIMIPRAMINE MALEATE] | Compound NOT metabolized |
| CCN1CCCC1CNC(=O)c1cc(S(N)(=O)=O)ccc1OC (centres undefined) [SULPIRIDE] | Compound NOT metabolized |
| O=C(O)CCC(=O)O.O=C(O[C@H]1CN2CCC1CC2)N1CCc2ccccc2[C@@H]1c1ccccc1 [SOLIFENACIN SUCCINATE] | Compound NOT metabolized |

assay: The drug is tested on Clostridium symbiosum strain: ATCC14940 for biotransformation. The drug concentrations were measured before and after a 12-h incubation by liquid-chromatography-coupled mass spectrometry (LC–MS); settings: 2 µM

| SMILES | Bacterial Biotransformation |
| --- | --- |
| CC(CN(C)C)CN1c2ccccc2CCc2ccccc21.O=C(O)/C=C\C(=O)O (centres undefined) [TRIMIPRAMINE MALEATE] | Compound NOT metabolized |
| CCN1CCCC1CNC(=O)c1cc(S(N)(=O)=O)ccc1OC (centres undefined) [SULPIRIDE] | Compound NOT metabolized |
| CCc1cccc2c3c([nH]c12)C(CC)(CC(=O)O)OCC3 (centres undefined) [ETODOLAC] | Compound NOT metabolized |
| O=C(O)CCC(=O)O.O=C(O[C@H]1CN2CCC1CC2)N1CCc2ccccc2[C@@H]1c1ccccc1 [SOLIFENACIN SUCCINATE] | Compound NOT metabolized |

assay: The drug is tested on Clostridium scindens strain: ATCC35704 for biotransformation. The drug concentrations were measured before and after a 12-h incubation by liquid-chromatography-coupled mass spectrometry (LC–MS); settings: 2 µM

| SMILES | Bacterial Biotransformation |
| --- | --- |
| CCN1CCCC1CNC(=O)c1cc(S(N)(=O)=O)ccc1OC (centres undefined) [SULPIRIDE] | Compound NOT metabolized |
| CCc1cccc2c3c([nH]c12)C(CC)(CC(=O)O)OCC3 (centres undefined) [ETODOLAC] | Compound NOT metabolized |
| O=C(O)CCC(=O)O.O=C(O[C@H]1CN2CCC1CC2)N1CCc2ccccc2[C@@H]1c1ccccc1 [SOLIFENACIN SUCCINATE] | Compound NOT metabolized |

settings: bacteroides fragilis, 12 h, 2 µM; remark: another data set of the same source
Description: The drug is tested on Bacteroides fragilis strain: DS-208 for biotransformation. The drug concentrations were measured before and after a 12-h incubation by liquid-chromatography-coupled mass spectrometry (LC–MS)

| SMILES | Bacterial Biotransformation |
| --- | --- |
| CC(CN(C)C)CN1c2ccccc2CCc2ccccc21.O=C(O)/C=C\C(=O)O (centres undefined) [TRIMIPRAMINE MALEATE] | Compound NOT metabolized |
| CCc1cccc2c3c([nH]c12)C(CC)(CC(=O)O)OCC3 (centres undefined) [ETODOLAC] | Compound metabolized |
| O=C(O)CCC(=O)O.O=C(O[C@H]1CN2CCC1CC2)N1CCc2ccccc2[C@@H]1c1ccccc1 [SOLIFENACIN SUCCINATE] | Compound NOT metabolized |

assay: The drug is tested on Bacteroides caccae strain: ATCC43185 for biotransformation. The drug concentrations were measured before and after a 12-h incubation by liquid-chromatography-coupled mass spectrometry (LC–MS); settings: 2 µM

| SMILES | Bacterial Biotransformation |
| --- | --- |
| CC(CN(C)C)CN1c2ccccc2CCc2ccccc21.O=C(O)/C=C\C(=O)O (centres undefined) [TRIMIPRAMINE MALEATE] | Compound NOT metabolized |
| CCN1CCCC1CNC(=O)c1cc(S(N)(=O)=O)ccc1OC (centres undefined) [SULPIRIDE] | Compound NOT metabolized |
| CCc1cccc2c3c([nH]c12)C(CC)(CC(=O)O)OCC3 (centres undefined) [ETODOLAC] | Compound NOT metabolized |
| O=C(O)CCC(=O)O.O=C(O[C@H]1CN2CCC1CC2)N1CCc2ccccc2[C@@H]1c1ccccc1 [SOLIFENACIN SUCCINATE] | Compound NOT metabolized |

assay: The drug is tested on Eubacterium rectale strain: ATCC33656 for biotransformation. The drug concentrations were measured before and after a 12-h incubation by liquid-chromatography-coupled mass spectrometry (LC–MS); settings: agathobacter rectalis, 2 µM

| SMILES | Bacterial Biotransformation |
| --- | --- |
| CC(CN(C)C)CN1c2ccccc2CCc2ccccc21.O=C(O)/C=C\C(=O)O (centres undefined) [TRIMIPRAMINE MALEATE] | Compound NOT metabolized |
| CCN1CCCC1CNC(=O)c1cc(S(N)(=O)=O)ccc1OC (centres undefined) [SULPIRIDE] | Compound NOT metabolized |
| O=C(O)CCC(=O)O.O=C(O[C@H]1CN2CCC1CC2)N1CCc2ccccc2[C@@H]1c1ccccc1 [SOLIFENACIN SUCCINATE] | Compound NOT metabolized |
